Experiment in all cases: relative viability (nuclei count vs DMSO), 5 days (fraction); higher = more cells survive
Compound in the test “MK-8033 + AZD7762”: Cn1cc(-c2cnc3ccc4ccc(CS(=O)(=O)NCc5ccccn5)cc4c(=O)c3c2)cn1 [MK-8033] + NC(=O)Nc1cc(-c2cccc(F)c2)sc1C(=O)N[C@H]1CCCNC1 [AZD7762] (partner 0.2 µM)
In short, it runs like this:
(§1)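 Relative viability was taken as the ratio of nuclei in treated wells to nuclei in vehicle wells. Lung cancer cell lines in 1536-well plates received compounds by pin tool one day after seeding, either one drug alone or a fixed anchor-drug dose plus five library-drug doses (not always all listed) in √10 steps. Nuclei were counted on 4× images after 5 days of treatment, and values are medians of duplicate plates.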

Compound in the test “RU-SKI 43 + Trametinib”: CC[C@@H](C)CNCC(=O)N1CCC2=C([C@@H]1COC3=CC=CC(=C3)C)C=CS2 [RU-SKI 43] + CC(=O)Nc1cccc(-n2c(=O)n(C3CC3)c(=O)c3c(Nc4ccc(I)cc4F)n(C)c(=O)c(C)c32)c1 [Trametinib] (partner 0.02 µM)
In short, it runs like this:
as §1

Compound in the test “Irinotecan + Trametinib”: CCc1c2c(nc3ccc(OC(=O)N4CCC(N5CCCCC5)CC4)cc13)-c1cc3c(c(=O)n1C2)COC(=O)[C@]3(O)CC [Irinotecan] + CC(=O)Nc1cccc(-n2c(=O)n(C3CC3)c(=O)c3c(Nc4ccc(I)cc4F)n(C)c(=O)c(C)c32)c1 [Trametinib] (partner 0.02 µM)
Summed up: as §1

Compound in the test “MK-8033 + Olaparib”: Cn1cc(-c2cnc3ccc4ccc(CS(=O)(=O)NCc5ccccn5)cc4c(=O)c3c2)cn1 [MK-8033] + O=C(c1cc(Cc2n[nH]c(=O)c3ccccc23)ccc1F)N1CCN(C(=O)C2CC2)CC1 [Olaparib] (partner 8 µM)
In short, it runs like this:
as §1

For NCI-H23, the relative viability was determined as 0.302 with MK-8033 + AZD7762 (first compound 0.02 µM); 0.231 with MK-8033 + AZD7762 (first compound 0.06325 µM); 0.215 with MK-8033 + AZD7762 (first compound 0.2 µM); 0.249 in the test with MK-8033 + AZD7762 (first compound 2 µM); 0.395 with RU-SKI 43 + Trametinib (first compound 0.1 µM); 0.392 in the test with RU-SKI 43 + Trametinib (first compound 0.3162 µM). Besides, the relative viability with RU-SKI 43 + Trametinib (first compound 1 µM) was 0.38; with RU-SKI 43 + Trametinib (first compound 3.162 µM), 0.443; with RU-SKI 43 + Trametinib (first compound 10 µM), 0.348; with Irinotecan + Trametinib (first compound 0.6325 µM), 0.35; in the test with Irinotecan + Trametinib (first compound 2 µM), 0.289; in the test with Irinotecan + Trametinib (first compound 6.325 µM), 0.187. Also, the relative viability with Irinotecan + Trametinib (first compound 20 µM) came out at 0.191; in the test with MK-8033 + Olaparib (first compound 0.02 µM), 0.295; in the test with MK-8033 + Olaparib (first compound 0.06325 µM), 0.307; in the test with MK-8033 + Olaparib (first compound 0.2 µM), 0.221; in the test with MK-8033 + Olaparib (first compound 2 µM) it was 0.332.
In the case of NCI-H322M, the relative viability with MK-8033 + AZD7762 (first compound 0.02 µM) came out at 0.535; with MK-8033 + AZD7762 (first compound 0.06325 µM), 0.47; with MK-8033 + AZD7762 (first compound 0.2 µM), 0.518; with MK-8033 + AZD7762 (first compound 0.6325 µM) it was 0.609; with MK-8033 + AZD7762 (first compound 2 µM), 0.697; with RU-SKI 43 + Trametinib (first compound 0.1 µM) it was 0.492. The relative viability with RU-SKI 43 + Trametinib (first compound 0.3162 µM) was determined as 0.553; in the test with RU-SKI 43 + Trametinib (first compound 1 µM), 0.534; with RU-SKI 43 + Trametinib (first compound 3.162 µM), 0.565; in the test with RU-SKI 43 + Trametinib (first compound 10 µM), 0.553; with Irinotecan + Trametinib (first compound 0.6325 µM), 0.508; with Irinotecan + Trametinib (first compound 2 µM) it was 0.616. For the same cell line, the relative viability with Irinotecan + Trametinib (first compound 6.325 µM) was 0.481; with Irinotecan + Trametinib (first compound 20 µM), 0.304; with MK-8033 + Olaparib (first compound 0.02 µM) it was 0.725; in the test with MK-8033 + Olaparib (first compound 0.06325 µM) it was 0.762; with MK-8033 + Olaparib (first compound 0.2 µM), 0.733; with MK-8033 + Olaparib (first compound 0.6325 µM), 0.782. Further, in the test with MK-8033 + Olaparib (first compound 2 µM), the relative viability is 0.739.
On to NCI-H358, for which the relative viability was determined as 0.541 with MK-8033 + AZD7762 (first compound 0.02 µM); 0.347 with MK-8033 + AZD7762 (first compound 0.06325 µM); 0.431 with MK-8033 + AZD7762 (first compound 0.2 µM); 0.428 with MK-8033 + AZD7762 (first compound 0.6325 µM); 0.458 with MK-8033 + AZD7762 (first compound 2 µM); 0.125 with RU-SKI 43 + Trametinib (first compound 0.1 µM). Moreover, the relative viability in the test with RU-SKI 43 + Trametinib (first compound 0.3162 µM) was determined as 0.138; with RU-SKI 43 + Trametinib (first compound 1 µM), 0.181; with RU-SKI 43 + Trametinib (first compound 3.162 µM), 0.139; in the test with RU-SKI 43 + Trametinib (first compound 10 µM), 0.124; with Irinotecan + Trametinib (first compound 0.6325 µM), 0.106; with Irinotecan + Trametinib (first compound 2 µM), 0.131. The relative viability with Irinotecan + Trametinib (first compound 6.325 µM) worked out at 0.125; in the test with Irinotecan + Trametinib (first compound 20 µM) it was 0.071; in the test with MK-8033 + Olaparib (first compound 0.02 µM) it was 0.561; in the test with MK-8033 + Olaparib (first compound 0.06325 µM), 0.553; with MK-8033 + Olaparib (first compound 0.2 µM), 0.577; with MK-8033 + Olaparib (first compound 0.6325 µM) it was 0.715. Besides, the relative viability with MK-8033 + Olaparib (first compound 2 µM) was found to be 0.57.
As to NCI-H441, the relative viability in the test with MK-8033 + AZD7762 (first compound 0.02 µM) is 1; with MK-8033 + AZD7762 (first compound 0.06325 µM), 1.09; in the test with MK-8033 + AZD7762 (first compound 0.2 µM) it was 1.24; with MK-8033 + AZD7762 (first compound 0.6325 µM), 0.984; with MK-8033 + AZD7762 (first compound 2 µM), 0.94; with RU-SKI 43 + Trametinib (first compound 0.1 µM), 0.483. In addition, the relative viability is 0.426 in the test with RU-SKI 43 + Trametinib (first compound 0.3162 µM); 0.552 with RU-SKI 43 + Trametinib (first compound 1 µM); 0.45 in the test with RU-SKI 43 + Trametinib (first compound 3.162 µM); 0.265 with RU-SKI 43 + Trametinib (first compound 10 µM); 0.405 in the test with Irinotecan + Trametinib (first compound 0.6325 µM); 0.426 with Irinotecan + Trametinib (first compound 2 µM). The relative viability with Irinotecan + Trametinib (first compound 6.325 µM) worked out at 0.141; in the test with Irinotecan + Trametinib (first compound 20 µM) it was 0.198; in the test with MK-8033 + Olaparib (first compound 0.02 µM) it was 0.628; in the test with MK-8033 + Olaparib (first compound 0.06325 µM) it was 0.446; in the test with MK-8033 + Olaparib (first compound 0.2 µM), 0.56; with MK-8033 + Olaparib (first compound 0.6325 µM), 0.529. Further, in the test with MK-8033 + Olaparib (first compound 2 µM), the relative viability is 0.59.
With NCI-H460, the relative viability was determined as 0.77 with MK-8033 + AZD7762 (first compound 0.02 µM); 0.673 with MK-8033 + AZD7762 (first compound 0.06325 µM); 0.571 with MK-8033 + AZD7762 (first compound 0.2 µM); 0.505 with MK-8033 + AZD7762 (first compound 0.6325 µM); 0.598 with MK-8033 + AZD7762 (first compound 2 µM); 0.224 with RU-SKI 43 + Trametinib (first compound 0.1 µM). The relative viability in the test with RU-SKI 43 + Trametinib (first compound 0.3162 µM) was found to be 0.2; in the test with RU-SKI 43 + Trametinib (first compound 1 µM), 0.141; in the test with RU-SKI 43 + Trametinib (first compound 3.162 µM), 0.197; in the test with RU-SKI 43 + Trametinib (first compound 10 µM), 0.0732; in the test with Irinotecan + Trametinib (first compound 0.6325 µM), 0.086; with Irinotecan + Trametinib (first compound 2 µM) it was 0.159. Further, the relative viability with Irinotecan + Trametinib (first compound 6.325 µM) worked out at 0.089; with Irinotecan + Trametinib (first compound 20 µM) it was 0.0313; with MK-8033 + Olaparib (first compound 0.02 µM) it was 0.419; in the test with MK-8033 + Olaparib (first compound 0.06325 µM) it was 0.462; in the test with MK-8033 + Olaparib (first compound 0.2 µM) it was 0.36; with MK-8033 + Olaparib (first compound 0.6325 µM) it was 0.498. In the test with MK-8033 + Olaparib (first compound 2 µM), the relative viability was 0.413.
Turning to NCI-H522, the relative viability in the test with MK-8033 + AZD7762 (first compound 0.02 µM) turned out to be 0.831; with MK-8033 + AZD7762 (first compound 0.06325 µM), 0.748; in the test with MK-8033 + AZD7762 (first compound 0.2 µM), 0.809; in the test with MK-8033 + AZD7762 (first compound 0.6325 µM), 0.881; with MK-8033 + AZD7762 (first compound 2 µM) it was 0.97; with RU-SKI 43 + Trametinib (first compound 0.1 µM), 0.862. Further, the relative viability is 0.723 with RU-SKI 43 + Trametinib (first compound 0.3162 µM); 0.675 with RU-SKI 43 + Trametinib (first compound 1 µM); 0.883 with RU-SKI 43 + Trametinib (first compound 3.162 µM); 0.715 with RU-SKI 43 + Trametinib (first compound 10 µM); 0.67 with Irinotecan + Trametinib (first compound 0.6325 µM); 0.599 with Irinotecan + Trametinib (first compound 2 µM). Also, the relative viability with Irinotecan + Trametinib (first compound 6.325 µM) amounted to 0.517; with Irinotecan + Trametinib (first compound 20 µM), 0.476; in the test with MK-8033 + Olaparib (first compound 0.02 µM), 0.544; with MK-8033 + Olaparib (first compound 0.06325 µM), 0.491; with MK-8033 + Olaparib (first compound 0.2 µM), 0.607; with MK-8033 + Olaparib (first compound 0.6325 µM), 0.685. In addition, the relative viability with MK-8033 + Olaparib (first compound 2 µM) stood at 0.632.
With NCI-H596, the relative viability with MK-8033 + AZD7762 (first compound 0.02 µM) turned out to be 1.04; with MK-8033 + AZD7762 (first compound 0.06325 µM), 0.995; with MK-8033 + AZD7762 (first compound 0.2 µM), 1.01; with MK-8033 + AZD7762 (first compound 0.6325 µM) it was 1.04; with MK-8033 + AZD7762 (first compound 2 µM), 0.985; in the test with RU-SKI 43 + Trametinib (first compound 0.1 µM), 0.775. The relative viability with RU-SKI 43 + Trametinib (first compound 0.3162 µM) is 0.883; in the test with RU-SKI 43 + Trametinib (first compound 1 µM) it was 0.858; with RU-SKI 43 + Trametinib (first compound 3.162 µM) it was 0.793; with RU-SKI 43 + Trametinib (first compound 10 µM), 0.717; with Irinotecan + Trametinib (first compound 0.6325 µM), 0.86; with Irinotecan + Trametinib (first compound 2 µM) it was 0.731. The relative viability with Irinotecan + Trametinib (first compound 6.325 µM) came to 0.682; with Irinotecan + Trametinib (first compound 20 µM), 0.758; in the test with MK-8033 + Olaparib (first compound 0.02 µM) it was 0.698; in the test with MK-8033 + Olaparib (first compound 0.06325 µM) it was 0.613; with MK-8033 + Olaparib (first compound 0.2 µM), 0.616; in the test with MK-8033 + Olaparib (first compound 0.6325 µM) it was 0.7. For the same cell line, the relative viability with MK-8033 + Olaparib (first compound 2 µM) turned out to be 0.737.
For the cell line NCI-H647, the relative viability with MK-8033 + AZD7762 (first compound 0.02 µM) came to 0.59; with MK-8033 + AZD7762 (first compound 0.06325 µM), 0.452; with MK-8033 + AZD7762 (first compound 0.2 µM) it was 0.408; in the test with MK-8033 + AZD7762 (first compound 0.6325 µM), 0.471; with MK-8033 + AZD7762 (first compound 2 µM), 0.549; with RU-SKI 43 + Trametinib (first compound 0.1 µM), 0.445. For the same cell line, the relative viability with RU-SKI 43 + Trametinib (first compound 0.3162 µM) worked out at 0.57; with RU-SKI 43 + Trametinib (first compound 1 µM), 0.472; with RU-SKI 43 + Trametinib (first compound 3.162 µM), 0.521; with RU-SKI 43 + Trametinib (first compound 10 µM) it was 0.439; with Irinotecan + Trametinib (first compound 0.6325 µM), 0.447; in the test with Irinotecan + Trametinib (first compound 2 µM) it was 0.414. Moreover, the relative viability in the test with Irinotecan + Trametinib (first compound 6.325 µM) was determined as 0.151; in the test with Irinotecan + Trametinib (first compound 20 µM) it was 0.0916; in the test with MK-8033 + Olaparib (first compound 0.02 µM), 0.7; with MK-8033 + Olaparib (first compound 0.06325 µM) it was 0.476; with MK-8033 + Olaparib (first compound 0.2 µM) it was 0.479; with MK-8033 + Olaparib (first compound 0.6325 µM), 0.661. In addition, the relative viability in the test with MK-8033 + Olaparib (first compound 2 µM) came out at 0.515.

(Values after the supplement of paper PMC10307832.)
